According to article PMC12165799, “Antimicrobial peptide developed with machine learning sequence optimization targets drug resistant Staphylococcus aureus in mice” (The Journal of Clinical Investigation, 2025):
Read-outs that look alike come from different tables or passages of the source.

Key:
[1] = tested on: S. aureus JE2 and transposon mutants; type: cell-based, Staphylococcus aureus
Description: 305 Minimal inhibitory concentration (MIC) assay
We made serial dilutions of 10×
We determined the MIC using OD600
Accordingly, we added 150 mM NaCl,
319 established protocol (5).
542 Use of S. aureus transposon mutants
543 We used S. aureus transposon mutants from the Nebraska Transposon Mutant Library
544 (NTML)(21). The library has a collection of 1,952 strains, each containing a single mutation within
545 a nonessential gene of USA300, an epidemic community-associated MRSA (CA-MRSA) isolate
546 (21). We selected a transposon insertion mutant from the NTML library in the fmtc gene, which
547 catalyzes the transfer of a lysyl group from L-lysyl-tRNA to membrane-bound
548 phosphatidylglycerol (PG) to produce lysylphosphatidylglycerol (LPG) (11). LPG imparts a less-
549 negative charge to the overall membrane potential and thus contributes to bacterial virulence by
550 contributing a resistance mechanism against cationic AMPs (11).

[2] = tested on: S. aureus MW2 biofilm formation; settings: for Biofilm formation, biomass (crystal violet), percentage of untreated / Biofilm formation, live-cell viability (XTT), percentage of untreated: 24 hours
Description: 349 Prevention of S. aureus MW2 biofilm formation
350 We evaluated the ability of the citropin 1.1-derived peptides to inhibit biofilm formation
351 following an established protocol with modifications (5). In short, we prepared exponential
352 cultures of S. aureus MW2 (adjusted to OD600 = 0.01) in TSB medium (supplemented with 0.2%
353 glucose) from overnight cultures. We added 90 µl of the bacterial culture to 10 µl of serially diluted
354 10× peptide solution in flat-bottomed 96-well polystyrene microtiter plates (Cat no. Corning 3595,
We used TSB medium containing
356 bacteria with water as the positive control, while TSB media with sterile water served as the
357 negative control. After incubation, we carefully removed the TSB medium and washed the wells
358 with PBS (Gibco, MD, USA) to remove loosely attached planktonic cells. We quantified the
359 biomass by staining the biofilms with crystal violet following an established protocol and
360 quantitated the concentration of peptide that inhibits 50% of biofilm formation (MBIC50)(8). We
361 measured the live cell count of the biofilms using XTT dye [2,3-bis(2-methyloxy-4-nitro-5-
362 sulfophenyl)-2H-tertazolium-5-carboxanilide] (ATCC, VA, USA).

S. aureus MW2 membrane = test: Membrane depolarization, DiBAC4(3); type: cell-based, Staphylococcus aureus; settings: S. aureus MW2, 32 μg/mL
Description: 466 Membrane depolarization
467 We measured bacterial membrane potential using an established protocol with minor
468 modifications (9). We prepared an exponential phase culture of S. aureus MW2 in fresh TSB
469 medium, washed the culture two times in PBS, and resuspended it in a double volume of PBS. To
470 energize the bacterial cells, we added 25 mM of glucose for 15 mins at 37°C, followed by 500 nM
471 of DiBAC4(3) (bis-(1,3-dibutylbarbituric acid) trimethine oxonol) (Thermo Fisher Scientific, ON,
472 Canada). DiBAC4(3) is a potential-sensitive probe that enters depolarized cells, binds to
474 this bacterial culture per well in a black, clear bottomed 96-well plate (Cat. no. 3904, Corning,
475 NY, USA) and monitored the fluorescence using a SpectraMax i3x (Molecular Devices, CA, USA)
476 for 20 min, with excitation at 485 nm and emission at 520 nm, until the baseline stabilized. Then
477 we added 10 µl of serially diluted peptide solutions and recorded the fluorescence for another 40
478 min. We included triton X-100 (1%) as a positive control.

[3] = tested on: VRSA (S. aureus VRS1) biofilm; test: Biofilm viability assay on solid support (VRS1); type: cell-based, Staphylococcus aureus; settings: for Bacterial load of 24 hour established biofilm on solid membrane: S. aureus VRS1, 24 h in PBS
[4] = tested on: MRSA (S. aureus MW2) biofilm; test: Biofilm viability assay on solid support (MW2); type: cell-based, Staphylococcus aureus; settings: for Bacterial load of 24 hour established biofilm on solid membrane: S. aureus MW2, 24 h in PBS
HepG2 cells = test: Mammalian cell cytotoxicity assay
Description: 410 the HepG2 cells at 37°C in 5% CO2 in Dulbecco’s Modified Eagle Medium (DMEM) (Gibco, MA,
We harvested and resuspended cells in fresh DMEM

[5] = 40 μg/mL, 24 h established biofilm

In the case of H-GLFKVIKKLLKVI-NH2 [CIT-8], the “Reduction in MIC against mprF transposon mutant compared with JE2” value [1] is reported as 2 fold, the MIC ([1]; JE2, Supplemental Table 6) is reported as 4 mg/L and the “MIC for pdx-transposon mutant versus parent strain JE2” value ([1]; also with 100 μM supplemental external vitamin B6) is reported as “same MIC”. The MIC ([1]; mprF transposon mutant (NTML)) was 2 mg/L, the “Biofilm formation, biomass (crystal violet), percentage of untreated” value ([2]; 4 μg/ml, replicate 1) was 54.1113 and the “Biofilm formation, live-cell viability (XTT), percentage of untreated” value ([2]; 4 μg/ml, replicate 1) was 32.0317. For the same substance, the “Biofilm formation, biomass (crystal violet), percentage of untreated” value ([2]; 4 μg/ml, replicate 2) was 76.6895, the “Biofilm formation, live-cell viability (XTT), percentage of untreated” value ([2]; 4 μg/ml, replicate 2) was 22.3741 and the “Biofilm formation, biomass (crystal violet), percentage of untreated” value ([2]; 4 μg/ml, replicate 3) was 101.649. For the same substance, the “Biofilm formation, live-cell viability (XTT), percentage of untreated” value ([2]; 4 μg/ml, replicate 3) was 54.6427, the “Biofilm formation, biomass (crystal violet), percentage of untreated” value ([2]; 8 μg/ml, replicate 1) was 13.6231 and the “Biofilm formation, live-cell viability (XTT), percentage of untreated” value ([2]; 8 μg/ml, replicate 1) was -0.6814. The “Biofilm formation, biomass (crystal violet), percentage of untreated” value ([2]; 8 μg/ml, replicate 2) was 7.383, the “Biofilm formation, live-cell viability (XTT), percentage of untreated” value ([2]; 8 μg/ml, replicate 2) was -0.6073 and the “Biofilm formation, biomass (crystal violet), percentage of untreated” value ([2]; 8 μg/ml, replicate 3) was 9.789. The “Biofilm formation, live-cell viability (XTT), percentage of untreated” value ([2]; 8 μg/ml, replicate 3) was -0.7036, the “Biofilm formation, biomass (crystal violet), percentage of untreated” value ([2]; 16 μg/ml, replicate 1) was 8.5978 and the “Biofilm formation, live-cell viability (XTT), percentage of untreated” value ([2]; 16 μg/ml, replicate 1) was -0.7406. For the same substance, the “Biofilm formation, biomass (crystal violet), percentage of untreated” value ([2]; 16 μg/ml, replicate 2) was 7.669, the “Biofilm formation, live-cell viability (XTT), percentage of untreated” value ([2]; 16 μg/ml, replicate 2) was -0.7184 and the “Biofilm formation, biomass (crystal violet), percentage of untreated” value ([2]; 16 μg/ml, replicate 3) was 8.622. The “Biofilm formation, live-cell viability (XTT), percentage of untreated” value ([2]; 16 μg/ml, replicate 3) was -0.5258, the “Biofilm formation, biomass (crystal violet), percentage of untreated” value ([2]; 32 μg/ml, replicate 1) was 7.502 and the “Biofilm formation, live-cell viability (XTT), percentage of untreated” value ([2]; 32 μg/ml, replicate 1) was -0.6814. For the same substance, the “Biofilm formation, biomass (crystal violet), percentage of untreated” value ([2]; 32 μg/ml, replicate 2) was 7.074, the “Biofilm formation, live-cell viability (XTT), percentage of untreated” value ([2]; 32 μg/ml, replicate 2) was -0.6962 and the “Biofilm formation, biomass (crystal violet), percentage of untreated” value ([2]; 32 μg/ml, replicate 3) was 7.812. The “Biofilm formation, live-cell viability (XTT), percentage of untreated” value ([2]; 32 μg/ml, replicate 3) was -0.5036, the “Concentration killing 50% of biofilm cells during biofilm formation” value ([2]; XTT live-cell viability, 24 h) was 4 µg/mL and the “MBIC50 (biomass reduced by 50%)” value ([2]; crystal violet, 24 h) was 6 µg/mL. For the same substance, the “Membrane depolarization, DIBAC4(3) fluorescence” value (S. aureus MW2 membrane) was “rapid increase in DIBAC4(3) fluorescence”, the “Reduction of viable biofilm cells of VRSA in established biofilms” value ([3]; 40 μg/mL (abstract)) was 4 log10 and the “Reduction of VRSA biofilm burden on solid membrane” value [3, 5] was 3.8 logs. For the same substance, the “Bacterial load of 24 hour established biofilm on solid membrane” value (from here on “Bacterial load”) ([3]; 4 μg/ml, replicate 1) was 4000000, the “Bacterial load” value ([3]; 4 μg/ml, replicate 2) was 80000000 and the “Bacterial load” value ([3]; 4 μg/ml, replicate 3) was 14000000. The “Bacterial load” value ([3]; 4 μg/ml, replicate 4) was 40000000, the “Bacterial load” value ([3]; 4 μg/ml, replicate 5) was 2000000 and the “Bacterial load” value ([3]; 4 μg/ml, replicate 6) was 20000000. The “Bacterial load” value ([3]; 40 μg/ml, replicate 1) was 16000, the “Bacterial load” value ([3]; 40 μg/ml, replicate 2) was 6000 and the “Bacterial load” value ([3]; 40 μg/ml, replicate 3) was 2400. The “Bacterial load” value ([3]; 40 μg/ml, replicate 4) was 18000, the “Bacterial load” value ([3]; 40 μg/ml, replicate 5) was 12000 and the “Bacterial load” value ([3]; 40 μg/ml, replicate 6) was 2200. For the same substance, the “Reduction of viable biofilm cells of MRSA in established biofilms” value ([4]; 40 μg/mL (abstract)) was 3 log10, the “Reduction of MRSA biofilm burden on solid membrane” value [4, 5] was 2.2 logs and the “Bacterial load” value ([4]; 4 μg/ml, replicate 1) was 2200000. For the same substance, the “Bacterial load” value ([4]; 4 μg/ml, replicate 2) was 2000000, the “Bacterial load” value ([4]; 4 μg/ml, replicate 3) was 3600000 and the “Bacterial load” value ([4]; 4 μg/ml, replicate 4) was 14000000. For the same substance, the “Bacterial load” value ([4]; 4 μg/ml, replicate 5) was 8000000, the “Bacterial load” value ([4]; 4 μg/ml, replicate 6) was 3800000 and the “Bacterial load” value ([4]; 40 μg/ml, replicate 1) was 200000. The “Bacterial load” value ([4]; 40 μg/ml, replicate 2) was 400000, the “Bacterial load” value ([4]; 40 μg/ml, replicate 3) was 800000 and the “Bacterial load” value ([4]; 40 μg/ml, replicate 4) was 200000. For the same substance, the “Bacterial load” value ([4]; 40 μg/ml, replicate 5) was 600000, the “Bacterial load” value ([4]; 40 μg/ml, replicate 6) was 200000 and the “HepG2 cell viability, Sup. Fig. 4B” value (HepG2 cells; 4 μg/ml, replicate 1) was 110.665. For the same substance, the “HepG2 cell viability, Sup. Fig. 4B” value (HepG2 cells; 4 μg/ml, replicate 2) was 94.3717, the “HepG2 cell viability, Sup. Fig. 4B” value (HepG2 cells; 4 μg/ml, replicate 3) was 107.525 and the “HepG2 cell viability, Sup. Fig. 4B” value (HepG2 cells; 8 μg/ml, replicate 1) was 104.83. The “HepG2 cell viability, Sup. Fig. 4B” value (HepG2 cells; 8 μg/ml, replicate 2) was 93.4852, the “HepG2 cell viability, Sup. Fig. 4B” value (HepG2 cells; 8 μg/ml, replicate 3) was 105.572 and the “HepG2 cell viability, Sup. Fig. 4B” value (HepG2 cells; 16 μg/ml, replicate 1) was 122.471. The “HepG2 cell viability, Sup. Fig. 4B” value (HepG2 cells; 16 μg/ml, replicate 2) was 104.62, the “HepG2 cell viability, Sup. Fig. 4B” value (HepG2 cells; 16 μg/ml, replicate 3) was 109.473 and the “HepG2 cell viability, Sup. Fig. 4B” value (HepG2 cells; 32 μg/ml, replicate 1) was 107.545. The “HepG2 cell viability, Sup. Fig. 4B” value (HepG2 cells; 32 μg/ml, replicate 2) was 100.768, the “HepG2 cell viability, Sup. Fig. 4B” value (HepG2 cells; 32 μg/ml, replicate 3) was 106.994 and the “HepG2 cell viability, Sup. Fig. 4B” value (HepG2 cells; 64 μg/ml, replicate 1) was 70.5897. For the same substance, the “HepG2 cell viability, Sup. Fig. 4B” value (HepG2 cells; 64 μg/ml, replicate 2) was 64.1784, the “HepG2 cell viability, Sup. Fig. 4B” value (HepG2 cells; 64 μg/ml, replicate 3) was 64.2134 and the “HepG2 cell viability, Sup. Fig. 4B” value (HepG2 cells; 128 μg/ml, replicate 1) was 32.858. The “HepG2 cell viability, Sup. Fig. 4B” value (HepG2 cells; 128 μg/ml, replicate 2) was 28.9912, the “HepG2 cell viability, Sup. Fig. 4B” value (HepG2 cells; 128 μg/ml, replicate 3) was 25.6954 and the “LD50 (concentration needed to kill 50% of HEPG2 cells)” value (HepG2 cells; human liver-derived HEPG2 cells) was 96 µg/mL.
